Data published in US20120083471A1, “Novel Compounds, Pharmaceutical Compositions Containing Same, Methods of Use for Same, and Methods for Preparing Same” (priority 2008, published 2012).
Like-named read-outs stand apart in the source and are kept apart here.

What was measured:
mtGPAT1 = biological target: T1, mtGPAT1 (Mus musculus, UniProt Q61586); test: In vitro mtGPAT inhibition: acylation of 14C-glycerol 3-phosphate with palmitoyl-CoA, scintillation counting; type: biochemical
T1 construct: from tissue; host or cells: mitochondrial preparation
T1 sequence (Q61586 1-827): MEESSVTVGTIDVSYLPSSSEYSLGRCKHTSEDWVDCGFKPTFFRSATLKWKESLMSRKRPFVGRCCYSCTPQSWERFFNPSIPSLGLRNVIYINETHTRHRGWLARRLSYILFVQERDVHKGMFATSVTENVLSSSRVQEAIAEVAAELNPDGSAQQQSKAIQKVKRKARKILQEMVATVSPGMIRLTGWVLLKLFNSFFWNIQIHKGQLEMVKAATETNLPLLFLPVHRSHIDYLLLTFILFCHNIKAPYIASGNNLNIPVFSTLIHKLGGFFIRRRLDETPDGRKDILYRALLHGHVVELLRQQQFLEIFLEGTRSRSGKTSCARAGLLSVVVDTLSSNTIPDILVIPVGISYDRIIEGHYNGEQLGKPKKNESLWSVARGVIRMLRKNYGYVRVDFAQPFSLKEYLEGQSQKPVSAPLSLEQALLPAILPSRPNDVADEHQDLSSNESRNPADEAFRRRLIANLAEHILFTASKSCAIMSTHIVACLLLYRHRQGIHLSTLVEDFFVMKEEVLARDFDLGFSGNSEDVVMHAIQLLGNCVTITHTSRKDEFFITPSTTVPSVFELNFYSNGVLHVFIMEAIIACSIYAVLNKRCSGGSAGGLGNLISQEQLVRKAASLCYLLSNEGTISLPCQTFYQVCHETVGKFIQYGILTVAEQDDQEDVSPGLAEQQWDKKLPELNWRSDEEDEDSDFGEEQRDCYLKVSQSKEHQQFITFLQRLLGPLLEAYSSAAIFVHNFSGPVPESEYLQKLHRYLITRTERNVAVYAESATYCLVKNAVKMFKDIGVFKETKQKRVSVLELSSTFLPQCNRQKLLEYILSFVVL
Description: The compounds produced as described above were evaluated for their ability to inhibit the acylation of glycerol-3-phosphate in vitro. The acylation reaction between ^14C-labelled glycerol-3-phosphate and palmitoyl-CoA, initiated by adding mtGPAT, was measured in the presence of varying concentrations of the inhibitor by scintillation counting as described in more detail below.
A mitochondrial preparation of glycerol 3-phosphate acyltransferase was added to the incubation mixture containing ^14C-labeled glycerol 3-phosphate, palmitoyl-CoA, and varying inhibitor concentrations to initiate the reaction. After ten min, the reaction was terminated by adding chloroform, methanol, and 1% perchloric acid. Five minutes later, more chloroform and perchloric acid were added, and the upper aqueous layer was removed. After washing three times with 1% perchloric acid, the organic layer was evaporated under nitrogen, and the amount of ^14C present was counted to determine the extent of reaction inhibition. Data points were recorded in triplicate, and IC50 values were calculated based on the amount of test inhibitor necessary to produce 50% of mtGPAT activity observed in the absence of inhibitor but in the presence of DMSO vehicle control.

FAO = FAO (SC 150 and Max) entries of the compound data sheets
[1] = compounds 4a-t and 7a-t, read-out: GPAT IC50
[2] = Table 1, sulfonamides 5a-f and 13a-f, triplicate, read-out: IC50 (μM) ± SD, In Vitro Anti-mtGPAT1 Activity
[3] = Table 2, sulfonamides 15a-i and 17a-f, triplicate, read-out: IC50 (μM) ± SD, In Vitro Anti-mtGPAT1 Activity
[4] = Table 3, sulfonamides 21a-c and 24a-f, triplicate, read-out: IC50 (μM) ± SD, In Vitro Anti-mtGPAT1 Activity

| IC50 (mtGPAT1; [1]) [µM] | SMILES | FAO SC 150 (FAO) | further results |
| --- | --- | --- | --- |
| 18.4 | CCCCCCCCS(=O)(=O)Nc1cc(-c2ccc(Cl)cc2)ccc1C(=O)O | FAS (IC50) Not Tested CPT I Stim Not Tested FAO SC 150 Neg SA/MH (MIC) ug/ml |  |
| 16 | CCCCCCCCS(=O)(=O)Nc1cc(-c2cccc(Cl)c2)ccc1C(=O)O | FAS (IC50) Not Tested CPT I Stim Not Tested FAO SC 150 Neg SA/MH (MIC) ug/ml |  |
| 22.5 | CCCCCCCCS(=O)(=O)Nc1cc(-c2cccs2)ccc1C(=O)O | FAS (IC50) Not Tested CPT I Stim Not Tested FAO SC 150 Neg SA/MH (MIC) ug/ml |  |
| 65.8 | CCCCCCCCS(=O)(=O)Nc1cc(-c2cccnc2)ccc1C(=O)O | FAS (IC50) Not Tested CPT I Stim Not Tested FAO SC 150 Neg SA/MH (MIC) ug/ml |  |
| 17.4 | CCCCCCCCS(=O)(=O)Nc1cc(-c2ccc(-c3ccccc3)cc2)ccc1C(=O)O | FAS (IC50) Not Tested CPT I Stim Not Tested FAO SC 150 Neg SA/MH (MIC) ug/ml |  |
| 18 | CCCCCCCCS(=O)(=O)Nc1cc(-c2ccccc2-c2ccccc2)ccc1C(=O)O | FAS (IC50) Not Tested CPT I Stim Not Tested FAO SC 150 Neg SA/MH (MIC) ug/ml |  |
| 17.6 | CCCCCCCCS(=O)(=O)Nc1cc(-c2ccccc2OC)ccc1C(=O)O | FAS (IC50) Not Tested CPT I Stim Not Tested FAO SC 150 Neg SA/MH (MIC) ug/ml |  |
| 16 | CCCCCCCCS(=O)(=O)Nc1cc(-c2ccc(OC)cc2)ccc1C(=O)O | FAS (IC50) Not Tested CPT I Stim Not Tested FAO SC 150 Neg SA/MH (MIC) ug/ml |  |
| 13.4 | CCCCCCCCS(=O)(=O)Nc1ccc(-c2ccc(Cl)cc2)cc1C(=O)O | FAS (IC50) Not Tested CPT I Stim Not Tested FAO SC 150 Neg SA/MH (MIC) ug/ml |  |
| 13 | CCCCCCCCS(=O)(=O)Nc1ccc(-c2cccc(Cl)c2)cc1C(=O)O | FAS (IC50) Not Tested CPT I Stim Not Tested FAO SC 150 Neg SA/MH (MIC) ug/ml |  |
| 14.4 | CCCCCCCCS(=O)(=O)Nc1ccc(-c2ccccc2Cl)cc1C(=O)O | FAS (IC50) Not Tested CPT I Stim Not Tested FAO SC 150 Neg SA/MH (MIC) ug/ml |  |
| 28 | CCCCCCCCS(=O)(=O)Nc1ccc(-c2cccc(C(C)=O)c2)cc1C(=O)O | FAS (IC50) Not Tested CPT I Stim Not Tested FAO SC 150 Neg SA/MH (MIC) ug/ml |  |
| 702 | CCCCCCCCS(=O)(=O)Nc1ccc(-c2ccc(C(C)=O)cc2)cc1C(=O)O | FAS (IC50) Not Tested CPT I Stim Not Tested FAO SC 150 Neg SA/MH (MIC) ug/ml |  |
| 13.5 | CCCCCCCCS(=O)(=O)Nc1ccc(-c2ccccc2-c2ccccc2)cc1C(=O)O | FAS (IC50) Not Tested CPT I Stim Not Tested FAO SC 150 Neg SA/MH (MIC) ug/ml |  |
| 65.7 | CCCCCCCCS(=O)(=O)Nc1ccc(-c2ccc(-c3ccccc3)cc2)cc1C(=O)O | FAS (IC50) Not Tested CPT I Stim Not Tested FAO SC 150 Neg SA/MH (MIC) ug/ml |  |
| 23.4 | CCCCCCCCS(=O)(=O)Nc1ccc(-c2ccccc2OC)cc1C(=O)O | FAS (IC50) Not Tested CPT I Stim Not Tested FAO SC 150 Neg SA/MH (MIC) ug/ml |  |
| 57.7 | CCCCCCCCS(=O)(=O)Nc1ccc(-c2cccc(O)c2)cc1C(=O)O |  |  |
| 20.6 | CCCCCCCCS(=O)(=O)Nc1ccc(-c2ccc(F)cc2)cc1C(=O)O |  |  |
| 19 | CCCCCCCCS(=O)(=O)Nc1ccc(-c2cc(Cl)cc(Cl)c2)cc1C(=O)O |  |  |
| 55.7 | CCCCCCCCS(=O)(=O)Nc1cc(-c2ccccc2F)ccc1C(=O)O |  |  |
| 28.7 | CCCCCCCCS(=O)(=O)Nc1cc(-c2cccc(F)c2)ccc1C(=O)O |  |  |
| 25.3 | CCCCCCCCS(=O)(=O)Nc1cc(-c2ccc(F)cc2)ccc1C(=O)O |  |  |
| 19.2 | CCCCCCCCS(=O)(=O)Nc1cc(-c2cc(Cl)cc(Cl)c2)ccc1C(=O)O |  |  |
| 18.3 | CCCCCCCCS(=O)(=O)Nc1cc(-c2ccc(Cl)cc2Cl)ccc1C(=O)O |  |  |

| IC50 (mtGPAT1; [1]) [µM] | SMILES | FAO SC 150 (FAO) | further results |
| --- | --- | --- | --- |
| 62.6 | CCCCCCCCS(=O)(=O)Nc1cc(-c2ccccc2O)ccc1C(=O)O |  |  |
| 55.5 | CCCCCCCCS(=O)(=O)Nc1cc(-c2cccc(O)c2)ccc1C(=O)O |  |  |
| 60.9 | CCCCCCCCS(=O)(=O)Nc1ccc(-c2ccc(O)cc2)cc1C(=O)O |  |  |
| 66.1 | CCCCCCCCS(=O)(=O)Nc1cc(-c2ccc(O)cc2)ccc1C(=O)O |  |  |
|  | CCCCCS(=O)(=O)Nc1ccccc1CP(=O)(O)O [Compound 13a, 2-(Pentylsulfonamido)benzylphosphonic acid] |  | IC50 (mtGPAT1; [2]): 41.4 ± 8.4 µM |
|  | CCCCCCCCCS(=O)(=O)Nc1ccccc1CP(=O)(O)O [Compound 13b, 2-(Nonylsulfonamido)benzylphosphonic acid] |  | IC50 (mtGPAT1; [2]): 30.6 µM |
|  | CCCCCCCCCS(=O)(=O)Nc1ccc(CP(=O)(O)O)cc1 [Compound 13f, 4-(Nonylsulfonamido)benzylphosphonic acid] |  | IC50 (mtGPAT1; [2]): 30.7 µM |
|  | CCCCCCCCCS(=O)(=O)Nc1ccc(C(=O)O)cc1 [Compound 15a, 4-(Nonylsulfonamido)benzoic acid] |  | IC50 (mtGPAT1; [3]): 29.1 ± 4.3 µM |
|  | O=C(O)c1ccc(NS(=O)(=O)c2ccccc2)cc1 [Compound 15b, 4-(Phenylsulfonamido)benzoic acid] |  | IC50 (mtGPAT1; [3]): 41.9 ± 5.3 µM |
|  | O=C(O)c1ccc(NS(=O)(=O)c2ccc(Cl)cc2)cc1 [Compound 15c, 4-(4-Chlorophenylsulfonamido)benzoic acid] |  | IC50 (mtGPAT1; [3]): 33.7 ± 1.3 µM |
|  | O=C(O)c1cccc(NS(=O)(=O)c2ccccc2)c1 [Compound 15e, 3-(Phenylsulfonamido)benzoic acid] |  | IC50 (mtGPAT1; [3]): 38.3 ± 7.6 µM |
|  | O=C(O)c1cccc(NS(=O)(=O)c2ccc(Cl)cc2)c1 [Compound 15f, 3-(4-Chlorophenylsulfonamido)benzoic acid] |  | IC50 (mtGPAT1; [3]): 23.6 ± 1.2 µM |
|  | O=C(O)c1ccccc1NS(=O)(=O)c1ccc(Cl)cc1 [Compound 15i, 2-(4-Chlorophenylsulfonamido)benzoic acid] |  | IC50 (mtGPAT1; [3]): 33.5 ± 2.5 µM |
|  | O=C(O)c1ccc(NS(=O)(=O)Cc2ccccc2)cc1 [Compound 17a, 4-(Phenylmethylsulfonamido)benzoic acid] |  | IC50 (mtGPAT1; [3]): 64.5 ± 11.6 µM |
|  | O=C(O)c1ccc(NS(=O)(=O)CCc2ccccc2)cc1 [Compound 17b, 4-(2-Phenylethylsulfonamido)benzoic acid] |  | IC50 (mtGPAT1; [3]): 63 ± 12.9 µM |
|  | O=C(O)c1cccc(NS(=O)(=O)Cc2ccccc2)c1 [Compound 17c, 3-(Phenylmethylsulfonamido)benzoic acid] |  | IC50 (mtGPAT1; [3]): 52.1 ± 9 µM |
|  | O=C(O)c1cccc(NS(=O)(=O)CCc2ccccc2)c1 [Compound 17d, 3-(2-Phenylethylsulfonamido)benzoic acid] |  | IC50 (mtGPAT1; [3]): 50.3 ± 4.4 µM |
|  | O=C(O)c1ccccc1NS(=O)(=O)Cc1ccccc1 [Compound 17e, 2-(Phenylmethylsulfonamido)benzoic acid] |  | IC50 (mtGPAT1; [3]): 40.7 ± 1.2 µM |
|  | O=C(O)c1ccccc1NS(=O)(=O)CCc1ccccc1 [Compound 17f, 2-(2-Phenylethylsulfonamido)benzoic acid] |  | IC50 (mtGPAT1; [3]): 46.4 ± 4.5 µM |
|  | CCCCCCCCS(=O)(=O)Nc1ccc(P(=O)(O)O)cc1 [Compound 21a, 4-(Octylsulfonamido)phenylphosphonic acid] |  | IC50 (mtGPAT1; [4]): 33.3 ± 3.8 µM |
|  | CCCCCCCCS(=O)(=O)Nc1cccc(P(=O)(O)O)c1 [Compound 21b, 3-(Octylsulfonamido)phenylphosphonic acid] |  | IC50 (mtGPAT1; [4]): 25.3 ± 5.4 µM |
|  | CCCCCCCCS(=O)(=O)Nc1ccccc1P(=O)(O)O [Compound 21c, 2-(Octylsulfonamido)phenylphosphonic acid] |  | IC50 (mtGPAT1; [4]): 25.7 ± 2.5 µM |
|  | CS(=O)(=O)Nc1ccccc1C(=O)O [Compound 24a, 2-(Methylsulfonamido)benzoic acid] |  | IC50 (mtGPAT1; [4]): 28.6 ± 4.6 µM |
|  | CCCCCCCCCS(=O)(=O)Nc1ccc(Cl)cc1C(=O)O [Compound 24d, 5-Chloro-2-(nonylsulfonamido)benzoic acid] |  | IC50 (mtGPAT1; [4]): 11.5 ± 0.7 µM |
